Assay results taken from ChEMBL document CHEMBL1154357, “Total synthesis of (-)-uniflorine A” (J Nat Prod, 2009).

Biological target: Sucrase-isomaltase, intestinal (Rattus norvegicus, UniProt P23739)
Assay: Inhibition of rat intestinal sucrase

Chain of Sucrase-isomaltase, intestinal (P23739 1-1013 limits assumed): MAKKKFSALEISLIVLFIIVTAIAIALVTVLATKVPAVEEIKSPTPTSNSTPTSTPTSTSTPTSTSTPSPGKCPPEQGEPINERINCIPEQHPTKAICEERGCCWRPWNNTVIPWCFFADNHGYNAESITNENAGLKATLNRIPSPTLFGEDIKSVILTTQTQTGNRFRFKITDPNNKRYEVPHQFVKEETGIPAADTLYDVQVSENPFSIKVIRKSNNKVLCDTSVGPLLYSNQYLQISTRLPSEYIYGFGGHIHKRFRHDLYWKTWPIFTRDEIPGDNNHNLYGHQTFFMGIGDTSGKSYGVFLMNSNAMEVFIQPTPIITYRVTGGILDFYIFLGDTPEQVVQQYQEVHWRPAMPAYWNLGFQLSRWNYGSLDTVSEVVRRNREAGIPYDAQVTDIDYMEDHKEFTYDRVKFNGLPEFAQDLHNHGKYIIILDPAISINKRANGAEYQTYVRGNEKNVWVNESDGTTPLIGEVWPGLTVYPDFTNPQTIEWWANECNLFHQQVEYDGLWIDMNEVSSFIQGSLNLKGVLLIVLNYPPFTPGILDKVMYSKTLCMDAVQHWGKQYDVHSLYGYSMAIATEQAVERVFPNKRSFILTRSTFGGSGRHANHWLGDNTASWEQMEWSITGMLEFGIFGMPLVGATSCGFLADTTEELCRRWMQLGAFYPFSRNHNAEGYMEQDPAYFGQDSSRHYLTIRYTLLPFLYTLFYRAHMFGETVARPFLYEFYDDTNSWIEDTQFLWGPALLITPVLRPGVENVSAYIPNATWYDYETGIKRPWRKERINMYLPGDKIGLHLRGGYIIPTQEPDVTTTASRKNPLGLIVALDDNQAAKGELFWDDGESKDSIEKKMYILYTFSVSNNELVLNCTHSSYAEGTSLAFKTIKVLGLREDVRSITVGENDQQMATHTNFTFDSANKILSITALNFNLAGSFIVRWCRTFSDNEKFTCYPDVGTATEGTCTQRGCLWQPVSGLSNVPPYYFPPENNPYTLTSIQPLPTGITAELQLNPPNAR
Chain of Sucrase-isomaltase, intestinal (P23739 1014-1841 limits assumed): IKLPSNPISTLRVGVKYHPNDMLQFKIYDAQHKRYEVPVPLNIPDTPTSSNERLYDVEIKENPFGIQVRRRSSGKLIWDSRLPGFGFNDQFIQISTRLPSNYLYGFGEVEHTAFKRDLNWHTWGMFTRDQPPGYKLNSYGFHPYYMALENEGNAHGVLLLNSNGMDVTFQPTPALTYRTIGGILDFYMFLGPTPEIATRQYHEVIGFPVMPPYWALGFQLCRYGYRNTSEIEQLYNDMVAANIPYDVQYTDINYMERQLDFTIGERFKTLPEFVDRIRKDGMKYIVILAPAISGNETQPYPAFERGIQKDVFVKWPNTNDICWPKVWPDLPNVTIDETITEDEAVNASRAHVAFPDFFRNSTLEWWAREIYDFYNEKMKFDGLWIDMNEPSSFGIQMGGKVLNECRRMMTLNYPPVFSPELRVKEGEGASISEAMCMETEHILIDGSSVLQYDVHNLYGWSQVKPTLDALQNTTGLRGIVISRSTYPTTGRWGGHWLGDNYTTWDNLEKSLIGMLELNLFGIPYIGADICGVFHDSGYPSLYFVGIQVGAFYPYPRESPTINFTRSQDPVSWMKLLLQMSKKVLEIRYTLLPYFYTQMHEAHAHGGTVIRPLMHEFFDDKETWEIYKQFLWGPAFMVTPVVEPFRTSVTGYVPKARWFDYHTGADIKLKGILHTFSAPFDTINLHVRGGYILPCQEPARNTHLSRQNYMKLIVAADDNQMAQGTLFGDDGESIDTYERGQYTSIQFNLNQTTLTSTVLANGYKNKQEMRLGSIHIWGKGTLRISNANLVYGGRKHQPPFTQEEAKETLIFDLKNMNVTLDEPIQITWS

Row | Structure (SMILES) | IC50
1 | O[C@H]1[C@H](O)[C@@H](O)CN2C[C@@H](O)[C@@H](O)[C@H]12 | 3100 nM
2 | O[C@H]1[C@H]2[C@H](O)[C@H](O)CN2[C@H](O)C[C@H]1O [UNIFLORINE B] | 1800 nM
